These results are taken from publication doi:10.64898/2025.12.17.694979, “Tunable multivalent Fe(II)-based glycoassemblies as mimetics for native high-mannose glycans” (bioRxiv, 2025).

The test system of experiment [1] is mGRFT binding to biotinylated Man-9. Kind of experiment: BLI competition assay against immobilized Man-9. More on the design: species or system Griffithsia. The settings on record: Man-9 immobilized. Here is the method: To further probe this ultra-high-affinity interaction, we performed a BLI competition assay to determine whether the [2DEG]^2+ complex could outcompete mGRFT’s natural ligand, Man-9. Biotinylated Man-9 was immobilized on the BLI biosensor tip, which was then dipped into solutions containing mGRFT that was pre-incubated with varying concentrations of [2DEG]^2+. […] More broadly, this finding highlights the power of rational synthetic design to generate glycomimetics capable of outperforming their biological counterparts.
(§1) All BLI experiments were performed at 25 °C on an Octet R2 instrument using SA or NiNTA biosensors. Ligand was loaded onto the biosensors followed by a baseline then association and dissociation phase. Biosensors were regenerated and this process was repeated for varying concentrations of analyte. Data was processed in Octet analysis studio 13.0. The samples were double referenced, first to a reference sensor then to a well containing no analyte. The trace responses were aligned to the average of the final 5s of the baseline and inter-step corrected to the dissociation step. A Savitzky-Golay filter was applied to reduce high frequency noise. The association and dissociation phases were fit globally to a 1:1 single exponential binding model. All conditions were run in triplicate.

Experiment [2] addresses monomeric Griffithsin (mGRFT) (Griffithsia sp., UniProt P84801, INS16GS). Kind of experiment: Biolayer interferometry (BLI) binding to mGRFT. To be noted: for Kd: mGRFT as the analyte, 25 °C. Here is the method:
as §1

Another experiment has as its target mGRFT (Griffithsia sp., UniProt P84801, INS16GS). Kind of experiment: Isothermal titration calorimetry (ITC) binding to mGRFT. To be noted: two-site model.
Another experiment addresses GRFT. More on the design: method as in PMID 17340634. To be noted: free mannose; cited from earlier work.

Sequence of monomeric Griffithsin (mGRFT) (P84801 whole entry, stated change not applied): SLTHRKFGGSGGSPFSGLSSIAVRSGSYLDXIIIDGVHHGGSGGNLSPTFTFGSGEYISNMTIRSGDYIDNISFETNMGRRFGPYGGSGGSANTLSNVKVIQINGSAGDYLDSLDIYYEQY
Sequence of mGRFT (P84801 whole entry, stated change not applied): as above

On to `OC[C@H]1O[C@H](O[C@@H]2[C@@H](OCCOCCOc3ccc(/C=N/CCN(CC/N=C/c4ccc(OCCOCCO[C@H]5O[C@H](CO)[C@@H](O)[C@H](O)[C@@H]5O[C@H]5O[C@H](CO)[C@@H](O)[C@H](O)[C@@H]5O)cn4)CC/N=C/c4ccc(OCCOCCO[C@H]5O[C@H](CO)[C@@H](O)[C@H](O)[C@@H]5O[C@H]5O[C@H](CO)[C@@H](O)[C@H](O)[C@@H]5O)cn4)nc3)O[C@H](CO)[C@@H](O)[C@@H]2O)[C@@H](O)[C@@H](O)[C@@H]1O.[Fe+2]` [[2DEG]^2+], for which the “reduction of BLI response in the association phase” value is reported as “approximately 50%” in experiment [1] (0.5 molar equivalents of complex pre-incubated with mGRFT) and “nearly eliminating the response entirely” in experiment [1] (two molar equivalents of complex pre-incubated with mGRFT). In experiment [2] (1:1 binding model), the dissociation rate kd entry is reported as “no measurable dissociation”. As to Man-5, in experiment [2] (biotinylated Man-5 as the ligand, kinetic fitting and steady state analysis), the equilibrium dissociation constant (Kd) is 40 ± 10 µM.

Turning to Man-9, the dissociation constant Kd in experiment [2] (biotinylated Man-9 as the ligand) worked out at 0.067 ± 0.001 µM. As for `OC[C@H]1O[C@H](OCCOCCOc2ccc(/C=N/CCN(CC/N=C/c3ccc(OCCOCCO[C@H]4O[C@H](CO)[C@@H](O)[C@H](O)[C@@H]4O)cn3)CC/N=C/c3ccc(OCCOCCO[C@H]4O[C@H](CO)[C@@H](O)[C@H](O)[C@@H]4O)cn3)nc2)[C@@H](O)[C@@H](O)[C@@H]1O.[Fe+2]` [[1DEG]^2+, [Fe(DEGman)3][SO4]], on mGRFT, the “stoichiometry of each interaction” value is recorded as “one”. `OC[C@H]1OC(O)[C@@H](O)[C@@H](O)[C@@H]1O` (stereo partly shown) [free mannose, mannose]: the Kd on GRFT is 102 µM.
